According to US12616750B2, “Combination therapy utilizing DNA alkylating agents and ATR inhibitors” (Merck Patent GmbH, priority 2018, dated 2026):

Experiments:
[1] = system: MDA-MB-453 cells; test: Dose-matrix combination assay (synergy score, Loewe model); type: cell-based; settings: MDA-MB-453
[2] = system: NCI-N87 cells; test: as above; type: cell-based; settings: NCI-N87
[3] = Xenograft experiment, tolerability (body weight); set-up: species or system H2d Rag2 mice; settings: mouse, in vivo
Protocol: The tolerability of the anti-cancer treatment was assessed considering the overall condition of the animal as well as body-weight changes of the mice (FIG. 22).

[4] = system: NCI-N87 xenografts; test: Xenograft experiment, therapeutic efficacy; settings: single agent: αHER2-6 1.0 mg/kg i.v. single dose; ATRi 50 mg/kg per oral once daily 14 d
Protocol: Female H2d Rag2 mice, 6-8 weeks old, were obtained from Taconic Biosciences, LLC. A xenograft was established by harvesting NCI-N87 cells from cell culture, mixing the cells 1:1 with Matrigel and injecting 2.5×10^6 cells subcutaneously into the flank of the mice. The tumor volume was assessed twice weekly by length measurements in two dimensions using calipers. The volume was calculated following eq. 3 where the length L is the longest tumor length and W is the shortest tumor length.
After an initial tumor growth phase, mice were randomized and assigned to treatment groups comprising 10 animals. The initial tumor volume amounted to approximately 100 mm^3 when treatment started. Vehicle treated mice obtained a solution of 0.5% Methocel, 0.25% Tween-20 in water. […] Mice were weighted twice weekly to assess the body-weight during the treatment period. The criteria to terminate the study for single animals were skin ulcerations, tumor length exceeding 15 mm or tumor exceeding 10% of the body weight. In addition, body weight loss was a criterium for termination if body weight loss exceeded 20% accompanied with a haggard appearance, body weight loss exceeded 20% on three successive days or if body weight loss exceeded 25% of the adjusted body weight.

[5] = system: Calu-3 cells; test: MNED curve-shift assay; type: cell-based
Description: (§1) Therefore a curve-shift assay system was established. In a first step, a dose-response curve (DRC) is obtained by treating a certain cell line with an inhibitor. The maximum non-efficacious dose (MNED) can be derived from this DRC. MNED is the highest dose, that can be added to a certain cell line without affecting the viability. The activity of the ADC is confirmed in a separate experiment. Finally, a combination experiment can be conducted. Therefore, the ADC and ADC plus inhibitor at MNED are added to the cells. The inhibitor is tested in parallel at MNED as a control. Due to the application of inhibitor at MNED, no reduction in cell viability caused by the inhibitor is expected. Three outcomes are possible: 1) The combination of ADC plus inhibitor is equipotent as the ADC only. […] Such a result would be interpreted as depotentiation. […] In this case, the potency of the ADC is potentiated.
(§2) Potentiation effects are expressed as dose-reduction indices (DRI), which can be calculated by dividing the IC50-value of ADC by the IC50-value of ADC plus inhibitor according to eq. 1
(§3) Curve-shift assays were conducted as follows: The cell number and viability was determined using ViCell™-XR (Beckman Coulter) and seeded in opague 96-well plate (10k viable cells/well). After seeding, the plate was incubated (37° C., 5% C02) in a humid chamber overnight. Compounds were diluted in the appropriate medium, added to the cells and the plate was incubated (37° C., 5% CO2, 6 d) in a humid chamber. After 30 min equilibration at room temperature, CellTiter-Glo reagent (Promega) was added. After the plate was shaken (3 min, 550 rpm, rt) it was incubated (10 min, rt) and luminescence was read on a synergy 4 plate reader (BioTek). Evaluation was performed using GraphPad Prism version 6.05. Therefor luminescence values were normalized to luminescence values of non-treated cells and dose-response was fitted with 4-point logistic fit.
(§4) The determination of dose-reduction indices (DRI) in a maximum non-efficacious dose (MNED) curve-shift assay is a 3-step process as depicted exemplarily in FIG. 13. The cytotoxicity of the ADC is confirmed in a cell viability assay in an initial step. […] In the second step. the MNED of the ATRi was determined. […] In order to obtain a full […] for the combination, the starting concentration of the ADC was lowered compared to the experiment in step 1.

[6] = system: BT-474 cells; test: MNED curve-shift assay; type: cell-based
Description: as §1, §2, §3, §4

[7] = system: MDA-MB-453 cells; test: MNED curve-shift assay; type: cell-based
Description: as §1, §2, §3, §4

[8] = system: HCC-1954 cells; test: MNED curve-shift assay; type: cell-based; settings: HCC-1954
Description: as §1, §2, §3, §4

[9] = system: MDA-MB-361 cells; test: MNED curve-shift assay; type: cell-based
Description: as §1, §2, §3, §4

[10] = system: MDA-MB-468 cells; test: MNED curve-shift assay; type: cell-based
Description: as §1, §2, §3, §4

[11] = system: JIMT-1 cells; test: MNED curve-shift assay; type: cell-based
Description: as §1, §2, §3, §4

[12] = system: SK-BR-3 cells; test: MNED curve-shift assay; type: cell-based
Description: as §1, §2, §3, §4

[13] = system: SK-OV-3 cells; test: MNED curve-shift assay; type: cell-based
Description: as §1, §2, §3, §4

[14] = system: HCC-1954 cells; test: Dose-matrix combination assay (synergy score, Loewe model); type: cell-based; settings: combination with DUBA
[15] = system: MDA-MB-468 cells; test: as above; type: cell-based; settings: combination with DUBA; MDA-MB-468, 6 d; S ± SD; cutoff ±1

**Q.** Which “Synergy score S” value ([1]; combination with ADC αHER2-2) does the source give for `C[C@@H]1COCCN1c1cc(C2(S(C)(=N)=O)CC2)nc(-c2ccnc3[nH]ccc23)n1` (stereo partly drawn) [AZD6738, 4-{4-[(3R)-3-methylmorpholin-4-yl]-6-[1-(S-methylsulfonimidoyl)cyclopropyl]pyrimidin-2-yl}-1H-pyrrolo[2,3-b]pyridine] here?
**A.** Its value is 9.1±2.1.

**Q.** What about the “Synergy score S” value ([1]; combination with ADC αHER2-6) of the same molecule?
**A.** Its value is 9.5±0.9.

**Q.** What about the “Synergy score S” value ([2]; combination with ADC αHER2-2) of the same molecule?
**A.** The value was 3.7±0.7.

**Q.** And the “Synergy score S” value ([2]; combination with ADC αHER2-6)?
**A.** Its value is 3.0±0.05.

**Q.** What about the “tolerability (conclusion)” value [3] of the same molecule?
**A.** Its value is “well tolerated”.

**Q.** And the “tumor response (tumor volume)” value [4]?
**A.** The value was “not statistically different from the vehicle-treated group”.

**Q.** What about the “MNED (maximum non-efficacious dose)” value [5] of the same molecule?
**A.** The value was 400 nM.

**Q.** And the “MNED (maximum non-efficacious dose)” value [6]?
**A.** Its value is 1000 nM.

**Q.** What about the “MNED (maximum non-efficacious dose)” value [7] of the same molecule?
**A.** The value was 111 nM.

**Q.** What about the “MNED (maximum non-efficacious dose)” value [8] of the same molecule?
**A.** The value was 250 nM.

**Q.** What about the “MNED (maximum non-efficacious dose)” value [9] of the same molecule?
**A.** The value was 111 nM.

**Q.** What about the “MNED (maximum non-efficacious dose)” value [10] of the same molecule?
**A.** The value was 300 nM.

**Q.** And the “MNED (maximum non-efficacious dose)” value [11]?
**A.** Its value is 80 nM.

**Q.** What about the “MNED (maximum non-efficacious dose)” value [12] of the same molecule?
**A.** Its value is 150 nM.

**Q.** What about the “MNED (maximum non-efficacious dose)” value [13] of the same molecule?
**A.** The value was 150 nM.

**Q.** What about the “Synergy score S” value ([14]; HCC-1954, 6 d, S ± SD, cutoff ±1) of the same molecule?
**A.** The value was 6.9±0.7.

**Q.** What about the “Synergy score S” value ([14]; cell line not given (screen on HCC-1954 or MDA-MB-468)) of the same molecule?
**A.** Its value is 7.6.

**Q.** What about the “additional cancer cells killed versus additive (Loewe) prediction” value ([14]; hotspot 160 to 630 nM AZD6738 and 0.16 to […] DUBA) of the same molecule?
**A.** Its value is “up to 69%”.

**Q.** And the “Synergy score S” value [15]?
**A.** The value was 5.7±1.0.
